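GI50 = concentration required for 50% inhibition of growth. TGI is the concentration that stops growth completely.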
Legend:
Assay in all cases: NCI anticancer screen, dose series, 384-well format
OVCAR-5 ovarian = system: OVCAR-5 ovarian
SF-295 CNS = system: SF-295 CNS
SK-MEL-5 melanoma = system: SK-MEL-5 melanoma
SF-268 CNS = system: SF-268 CNS
SNB-19 CNS = system: SNB-19 CNS
DU-145 prostate = system: DU-145 prostate
IGROV1 ovarian = system: IGROV1 ovarian
LOX IMVI melanoma = system: LOX IMVI melanoma
EKVX NSCLC = system: EKVX NSCLC
A549 NSCLC = system: A549 NSCLC
MDA-MB-435 melanoma = system: MDA-MB-435 melanoma
RPMI-8226 leukemia = system: RPMI-8226 leukemia
HOP-92 NSCLC = system: HOP-92 NSCLC
NCI-H226 lung = system: NCI-H226 lung
OVCAR-3 ovarian = system: OVCAR-3 ovarian
MOLT-4 leukemia = system: MOLT-4 leukemia
K-562 leukemia = system: K-562 leukemia
BT-549 breast = system: BT-549 breast
SN12C renal = system: SN12C renal
M14 melanoma = system: M14 melanoma
RXF 393 renal = system: RXF 393 renal
MALME-3M melanoma = system: MALME-3M melanoma
HOP-62 NSCLC = system: HOP-62 NSCLC
UACC-257 melanoma = system: UACC-257 melanoma
HL-60(TB) leukemia = system: HL-60(TB) leukemia
NCI-H460 NSCLC = system: NCI-H460 NSCLC
MDA-MB-231 breast = system: MDA-MB-231 breast
MDA-MB-468 breast = system: MDA-MB-468 breast
T-47D breast = system: T-47D breast
HT29 colon = system: HT29 colon
TK-10 renal = system: TK-10 renal
NCI/ADR-RES ovarian = system: NCI/ADR-RES ovarian
PC-3 prostate = system: PC-3 prostate
SF-539 CNS = system: SF-539 CNS
UACC-62 melanoma = system: UACC-62 melanoma
SNB-75 CNS = system: SNB-75 CNS
COLO 205 colon = system: COLO 205 colon
NCI-H23 lung = system: NCI-H23 lung
NCI-H322M lung = system: NCI-H322M lung
HCC-2998 colon = system: HCC-2998 colon
MCF7 breast = system: MCF7 breast
786-0 renal = system: 786-0 renal
HS 578T breast = system: HS 578T breast
SK-MEL-28 melanoma = system: SK-MEL-28 melanoma
SR leukemia = system: SR leukemia
CAKI-1 renal = system: CAKI-1 renal
SW-620 colon = system: SW-620 colon
A498 renal = system: A498 renal
UO-31 renal = system: UO-31 renal
NCI-H522 lung = system: NCI-H522 lung
SK-OV-3 ovarian = system: SK-OV-3 ovarian
CCRF-CEM leukemia = system: CCRF-CEM leukemia
HCT-15 colon = system: HCT-15 colon
OVCAR-4 ovarian = system: OVCAR-4 ovarian
OVCAR-8 ovarian = system: OVCAR-8 ovarian
ACHN renal = system: ACHN renal
KM12 colon = system: KM12 colon

Cc1c(C#N)cccc1[C@@H](C)Nc1nnc(C)c2cnc(N3CCOCC3)cc12
GI50 (OVCAR-5 ovarian): 19.1 µM | TGI (OVCAR-5 ovarian): 38.9 µM | GI50 (SF-295 CNS): 14.7 µM | TGI (SF-295 CNS): 28 µM | GI50 (SK-MEL-5 melanoma): 11 µM | TGI (SK-MEL-5 melanoma): 23 µM | GI50 (SF-268 CNS): 16 µM | TGI (SF-268 CNS): 30.8 µM | GI50 (SNB-19 CNS): 14.3 µM | TGI (SNB-19 CNS): 37.5 µM | GI50 (DU-145 prostate): 18.5 µM | TGI (DU-145 prostate): 37.6 µM | GI50 (IGROV1 ovarian): 15.5 µM | TGI (IGROV1 ovarian): 31.4 µM | GI50 (LOX IMVI melanoma): 14 µM | TGI (LOX IMVI melanoma): 27.1 µM | GI50 (EKVX NSCLC): 11.7 µM | TGI (EKVX NSCLC): 26.8 µM | GI50 (A549 NSCLC): 16.7 µM | TGI (A549 NSCLC): 36.3 µM | GI50 (MDA-MB-435 melanoma): 18.2 µM | TGI (MDA-MB-435 melanoma): 32.4 µM | GI50 (RPMI-8226 leukemia): 11.2 µM | TGI (RPMI-8226 leukemia): 23.3 µM | GI50 (HOP-92 NSCLC): 0.0569 µM | TGI (HOP-92 NSCLC): 14.3 µM | GI50 (NCI-H226 lung): 12.7 µM | TGI (NCI-H226 lung): 26.5 µM | GI50 (OVCAR-3 ovarian): 13.4 µM | TGI (OVCAR-3 ovarian): 26.4 µM | GI50 (MOLT-4 leukemia): 12.8 µM | TGI (MOLT-4 leukemia): 25.5 µM | GI50 (K-562 leukemia): 0.163 µM | TGI (K-562 leukemia): 15 µM | GI50 (BT-549 breast): 14.1 µM | TGI (BT-549 breast): 27.4 µM | GI50 (SN12C renal): 1.65 µM | TGI (SN12C renal): 19.9 µM | GI50 (M14 melanoma): 17.2 µM | TGI (M14 melanoma): 31.1 µM | GI50 (RXF 393 renal): 12 µM | TGI (RXF 393 renal): 24.6 µM | GI50 (MALME-3M melanoma): 16.6 µM | TGI (MALME-3M melanoma): 30.6 µM | GI50 (HOP-62 NSCLC): 14.2 µM | TGI (HOP-62 NSCLC): 27.9 µM | GI50 (UACC-257 melanoma): 19.5 µM | TGI (UACC-257 melanoma): 33.9 µM | GI50 (HL-60(TB) leukemia): 21.8 µM | TGI (HL-60(TB) leukemia): 36.2 µM | GI50 (NCI-H460 NSCLC): 17.5 µM | TGI (NCI-H460 NSCLC): 32.2 µM | GI50 (MDA-MB-231 breast): 14.3 µM | TGI (MDA-MB-231 breast): 29.3 µM | GI50 (MDA-MB-468 breast): 0.39 µM | TGI (MDA-MB-468 breast): 6.37 µM | GI50 (T-47D breast): 11.3 µM | TGI (T-47D breast): 24.6 µM | GI50 (HT29 colon): 15.7 µM | TGI (HT29 colon): 30 µM | GI50 (TK-10 renal): 15.2 µM | TGI (TK-10 renal): 38.9 µM | GI50 (NCI/ADR-RES ovarian): 16.6 µM | TGI (NCI/ADR-RES ovarian): 32.1 µM | GI50 (PC-3 prostate): 17 µM | TGI (PC-3 prostate): 32.3 µM | GI50 (SF-539 CNS): 15.9 µM | TGI (SF-539 CNS): 29.3 µM | GI50 (UACC-62 melanoma): 16.6 µM | TGI (UACC-62 melanoma): 30.3 µM | GI50 (SNB-75 CNS): 16.3 µM | TGI (SNB-75 CNS): 33.3 µM | GI50 (COLO 205 colon): 16.5 µM | TGI (COLO 205 colon): 30.5 µM | GI50 (NCI-H23 lung): 10.6 µM | TGI (NCI-H23 lung): 23.2 µM | GI50 (NCI-H322M lung): 11.8 µM | TGI (NCI-H322M lung): 26.6 µM | GI50 (HCC-2998 colon): 18.3 µM | TGI (HCC-2998 colon): 33.3 µM | GI50 (MCF7 breast): 15.8 µM | TGI (MCF7 breast): 35.5 µM | GI50 ([…]-0 renal): 13.1 µM | TGI (786-0 renal): 26.5 µM | GI50 (HS 578T breast): 13.8 µM | TGI (HS 578T breast): 26.9 µM | GI50 (SK-MEL-28 melanoma): 15.4 µM | TGI (SK-MEL-28 melanoma): 29.7 µM | GI50 (SR leukemia): 0.749 µM | TGI (SR leukemia): 18.1 µM | GI50 (CAKI-1 renal): 10.5 µM | TGI (CAKI-1 renal): 23 µM | GI50 (SW-620 colon): 12.6 µM | TGI (SW-620 colon): 25.4 µM | GI50 (A498 renal): 12.1 µM | TGI (A498 renal): 24.6 µM | GI50 (UO-31 renal): 13.3 µM | TGI (UO-31 renal): 26.8 µM | GI50 (NCI-H522 lung): 11.5 µM | TGI (NCI-H522 lung): 24 µM | GI50 (SK-OV-3 ovarian): 16.7 µM | TGI (SK-OV-3 ovarian): 30.7 µM | GI50 (CCRF-CEM leukemia): 19.5 µM | TGI (CCRF-CEM leukemia): 33.7 µM | GI50 (HCT-15 colon): 16.1 µM | TGI (HCT-15 colon): 29.9 µM | GI50 (OVCAR-4 ovarian): 8.18 µM | TGI (OVCAR-4 ovarian): 22 µM | GI50 (OVCAR-8 ovarian): 15 µM | TGI (OVCAR-8 ovarian): 29 µM | GI50 (ACHN renal): 14.5 µM | TGI (ACHN renal): 31.6 µM | GI50 (KM12 colon): 4.85 µM | TGI (KM12 colon): 22.2 µM
